From patent US20250000948A1, “SOLID COMPOSITIONS COMPRISING A PEPTIDE OR A PROTEIN AND AN ACYLATED AMINO ACID” (ADOCIA, priority 2021, published 2025)

How the values were obtained:
[1] = Solubilization kinetics of compacts, USP <711> paddle apparatus (Example B1); assay type: physicochemical; conditions: 200 mM phosphate buffer pH 6.8, 37° C., 75 rpm
Protocol: To evaluate solubilization kinetics of NaPheC6 and NaPheC8 in similar conditions, compacts are prepared in the following manner:
In a manual tablet press (LFA TDP 0 Desktop tablet press) equipped with cylindrical 8 mm diameter punches, 200 +10 mg of permeation enhancer is filled into the die cavity. Compression into cylindrical compacts of 4±0.5 mm height yields compacts with apparent volumetric mass of 1±0.2 g/mL.
These compacts are put into a capsule sinker, then dissolved using an USP <711>-compliant apparatus (type 2-Paddle apparatus). Dissolution is done into 700 mL of 200 mM phosphate buffer, pH 6.8. Temperature is set at 37° C. and agitation at 75 rpm.
Sampling of the dissolution medium followed by HPLC dosage yields the following dissolution profiles for the compounds NaPheC6 and NaPheC8, respectively: […]

Caco-2 monolayers = assay type: in vitro ADME
Protocol: An in vitro permeability assay was conducted in order to evaluate the impact of NaPheC8 on the passage of peptides through a monolayer of intestinal epithelial cells. Caco-2 cells were seeded on a polycarbonate membrane that separate basal and apical compartments of a Transwell system and cultured for 21-days.
Insulin lispro and semaglutide formulations (100 μM) were added into the apical compartment of the culture system in presence or absence of different concentrations of NaPheC8.
In vitro absorption of peptides was estimated by quantifying insulin lispro or semaglutide in the basal compartment 1 hour after the addition of formulations (quantification by ELISA).
Peptide permeability in the presence of NaPheC8, expressed as a fold-increase compared to the treatment with the peptide alone, is reported in the table below: […]

Row | SMILES | dissolved (%) ([1]; 20 seconds) | dissolved (%) ([1]; 40 seconds) | dissolved (%) ([1]; 60 seconds) | dissolved (%) ([1]; 80 seconds) | dissolved (%) ([1]; 100 seconds) | effect on passage of peptides through Caco-2 monolayers (in words) (Caco-2 monolayers)
1 | CCCCCC(=O)N[C@@H](Cc1ccccc1)C(=O)O [NaPheC6, N-hexanoyl-Phenylalanine] | 47 | 100 | 100 | 100 | 100 | 
2 | CCCCCCCC(=O)N[C@@H](Cc1ccccc1)C(=O)[O-].[Na+] [NaPheC8, sodium salt of N-octanoyl phenylalanine] | 15 | 37 | 57 | 89 | 99 | favors the passage of these peptides through Caco-2 monolayers, in a dose-dependant manner
